Measurements taken from patent publication US20100150844A1, “USE OF 8-QUINOLINOL AND ITS ANALOGS TO TARGET CANCER STEM CELLS” (The Johns Hopkins University, priority 2006, published 2010).
“Also recorded” adds a separate entry of the source. Read-outs that look alike come from different tables or passages of the source. Non-standard residues stand in square brackets, D forms with d. Residues, ends and D or L forms follow the SMILES beside them. *: point of attachment. Nle = CCCC[C@H](N)C(=O)O; Cbz = O=C(OCc1ccccc1)*

Assays:
MCF7 xenograft = conditions: tail vein injection, 8Q 20 mg/kg twice weekly for 4 weeks, FIG. 5E(1)
Description: (§1) FIGS. 5A-5F. […] Experiment was performed as described in FIG. 3 and Materials and Methods. B: Structure of NSC125034 and 8Q. […] D: In vivo effect of 8Q (4 mg/Kg) by intratumor injection. […] Mice were treated twice weekly for 3 weeks. Tumor sizes were measured weekly. E: In vivo effect of 8Q (20 mg/Kg) by tail vein injection on two different types of breast cancer cell lines, MCF7 (estrogen dependent, xenograft model reflect the early-stage breast malignancy) and MDA-MB435 (estrogen […], xenograft model reflect the later-stage breast malignancy). Mice were treated twice weekly for 4 weeks. (1) MCF7 xenograft (2) MDA-MB435 xenograft. F: Total body weight of individual mouse in the tail vein injection experiment was determined weekly and the average body weight was plotted.
(§2) Antitumor activity in xenograft model. […] Stock solutions of paclitaxel alone, 8-Quinolinol (8Q) alone or in combination with paclitaxel were prepared by dissolving the drugs in a vehicle solution (EtOH:cremophor, 50:50 v/v). Vehicle or paclitaxel alone, 8Q alone and 8Q in combination with paclitaxel stock solution were mixed with saline (10:90 v/v). For intratumor injection, the 8Q dose was 4 mg/kg, given twice weekly for three weeks. […] The tumor volumes were determined by measuring the length (l) and the width (w) and calculating the volume (V=lw^2/2). […]

[1] = tail vein, 20 mg/kg, nude mice
Description: as §1, §2

MDA-MB-435 tumor = assay: Antitumor activity in nude mouse xenograft model, MDA-MB-435; assay type: in vivo
Description: as §1, §2

MCF7 cells = assay: Cell proliferation assay (MTT), MCF7 parental cells; assay type: cell-based, human
Description: (§3) FIG. 2. Susceptibility of MCF7 sphere cells to common anticancer drugs compared with MCF7 cells. Single MCF7 and MCF7 sphere cells were inoculated into 96 well plates at a concentration of 5000 cells per well. After overnight culture, cells were subject to selected clinical drug treatment at the indicated dose for three days. Cell proliferation was determined by MTT assay.
(§4) Cell proliferation assay. […] Each concentration was repeated three times.

[2] = mouse, U.S. National Toxicology Program acute toxicity studies; cited from earlier work
MCF7 sphere cells = assay: Cell proliferation assay (MTT), MCF7 sphere cells; assay type: cell-based, human
Description: as §3
MCF7 and MCF7 sphere cell culture. Human breast cancer cell line MCF7 cells, MDA-MB-435 cells were obtained from ATCC (American Type Culture Collection). Cells were grown in Dulbecco's Modified Eagle's Medium (DMEM) (Invitrogen) supplemented with 10% fetal bovine serum (FBS) (Invitrogen), 100 units/ml penicillin and 100 ug/ml streptomycin (Invitrogen), in a 37° C. incubator containing 5% CO2. To isolate and culture MCF7 sphere cells, SP cells were sorted based on protocol shown below. Sphere cell culture was performed according to published protocol with modifications^28-30. Briefly, single cells were plated in ultralow attachment plates (Corning, N.Y.) at a density of 20,000 viable cells/mL in primary culture and 1000 cells/mL in passages. Cells were grown in a serum-free mammary epithelial growth medium without bovine pituitary extract (MEGM, BioWhittaker), but supplemented with serum substitute B27 (Invitrogen), 20 ng/mL, Epidermal Growth Factor (EGF), 20 ng/mL, and 20 ng/mL basic fibroblast growth factor (bFGF) (BD Biosciences). In order to passage sphere cells, spheres were collected into 15 ml conic tubes and allowed to settle for 15 minutes. Supernatant was removed. Sphere cells were dissociated enzymatically with 0.05% trypsin, 0.5 mM EDTA (Invitrogen) and mechanically by a glass Pasteur pipette. The cells obtained from dissociation were passed through a 40-μm sieve and analyzed microscopically for single cells and subjected to the experiments below.
as §4

[3] = in words; solvent DMSO or ethanol
[4] = rat, U.S. National Toxicology Program acute toxicity studies; cited from earlier work
MCF7 non-SP cells = assay: cells; conditions: Homo sapiens, MCF7, read-out: growth inhibition
Description: (§5) To identify and sort SP and non-SP fractions, cells were washed with phosphate buffered saline (PBS) and detached from the culture dish with trypsin and EDTA, pelleted by centrifugation, and resuspended in 37° C. DMEM containing 2% FBS at 1×10^6 cell/ml. Cell staining was performed according to the protocol originally developed by Goodell et al with slight modification^46. […] Following staining, the cells were spun down and resuspended in Hanks'Balanced Salt Solution (HBSS) (Invitrogen) containing 1 μg/ml propidium iodide and maintained at 4° C. for flow cytometry analysis/sorting. Cell analysis and sorting were performed on a MoFlo cytometer (Dako Cytomation, Fort Collins, Colo. USA) equipped with a Coherent Enterprise II laser emitting MLUV at 351 nm and blue 488 nm lines.
(§6) Cell proliferation assay. To test the sensitivity of MCF7 and MCF7 sphere cells to specific compounds, both MCF7 and MCF7 sphere single cells were seeded at 3×10^4 cells/ml in 96-well plates. After overnight incubation, serial concentrations of tested compounds were added. Each concentration was repeated three times. These cells were incubated in a humidified atmosphere with 5% CO2 for 3 days. […] The medium was removed and formazan was dissolved in DMSO and the optical density was measured at 590 nm using a Bio-assay reader (Bio-Rad, USA).

MCF7 SP cells = assay: cells; conditions: Homo sapiens, MCF7, read-out: growth inhibition
Description: as §5, §6

NF-κB [5] = assay: Trans-AM NF-κB assay on nuclear extracts of MCF7 cells; assay type: cell-based; conditions: Homo sapiens, 24 hours
Description: (§7) FIGS. 3A-3B. A: Susceptibility of MCF7 and MCF7 sphere cells PI3K pathway inhibitor, rapamycin and NF-κB pathway inhibitors, PTL and PDTC at indicated doses. Experiment was performed as described in FIG. 2 and Materials and Methods. B: Inhibition of NF-κB activity of MCF7 and MCF7 sphere cells after treatment with PTL and PDTC at indicated concentrations. Cells were treated with these compounds at indicated doses for 24 hours. Nuclear extract was prepared from control and treated cells. The quantification of NF-κB activation was performed according to product manual. Nuclear extract preparation. […] After the nuclear lysates were centrifuged, supernatants were collected for quantification of NF-κB activation. The protein concentrations in the supernatants were determined using the BCA protein assay kit (Pierce, Rockford, Ill.). Quantification of NF-κB activation. Trans-AM NF-κB assay, an enzyme-linked immunosorbent assay (ELISA)-based method (Trans-AM NF-κB; Active Motif, Carlsbad, Calif.) was used for NF-κB activity quantification according to the manufacturer's instruction. Briefly, cell nuclear extracts were placed in 96-well plates coated with an oligonucleotide containing the NF-κB consensus sequence, and the presence of active NF-κB was detected by using antibodies specific for p50 subunits that are not complexed to IκB and thus able to bind the consensus sequence. […]

NF-κB [6] = assay: Trans-AM NF-κB assay on nuclear extracts of MCF7 sphere cells; assay type: cell-based, human; conditions: 5 μM, 24 hours
Description: as §7

[7] = comparison sphere versus parental cells, in words

Molecule: Oc1cccc2cccnc12 [8Q, 8-quinolinol]
- tumor growth inhibition (MCF7 xenograft): significantly inhibited tumor growth
- toxicity judged by apparent symptoms and body weight loss [1]: did not show significant toxicity
- tumor growth inhibition (MDA-MB-435 tumor; intratumor injection, 8Q 4 mg/kg twice weekly for 3 weeks, FIG. 5D): significantly inhibited tumor growth
- inhibition at 5 µM (MCF7 cells; Homo sapiens, MCF7, 72 h, read-out: growth inhibition): 30%
- LD50 (oral) [2]: 20000 mg/kg
- inhibition at 5 µM (MCF7 sphere cells; Homo sapiens, 72 h, 5 μM, three day treatment, MCF7 sphere cells, read-out: growth inhibition): 86%
- growth inhibition on MCF7 sphere cells compared with MCF7 cells (MCF7 sphere cells; [7]): preferentially inhibit the cancer stem cells over bulk cancer cells
- solubility [3]: Ethanol soluble
- LD50 (oral) [4]: 1200 mg/kg
- inhibition at 5 µM (MCF7 non-SP cells): 71.9%
- inhibition at 5 µM (MCF7 SP cells): 84.7%

Molecule: CCCC[C@@H](C=O)NC(=O)[C@H](CC(C)C)NC(=O)[C@H](CC(C)C)NC(=O)OCc1ccccc1 [GSI1] (Cbz-Leu-Leu-[Nle]-aldehyde)
- growth inhibition on MCF7 sphere cells compared with MCF7 cells (MCF7 sphere cells; [7]): did not inhibit MCF7 sphere cells more than the MCF7 parental cells; also recorded: no higher growth inhibitor ability on MCF7 sphere cells than MCF7 cells

Molecule: S=C(S)N1CCCC1 [PDTC, pyrrolidine dithiocarbamate]
- inhibition at 5 µM (NF-κB [5]): 33.6%
- decrease of NF-κB activity (NF-κB [6]): 61.8%
- growth inhibition (MCF7 cells; 1 uM, MCF7 cells): no growth inhibition effects
- inhibition at 1 µM (MCF7 sphere cells; Homo sapiens, 1 uM, MCF7 sphere cells, read-out: growth inhibition): 50.8%
- growth inhibition on MCF7 sphere cells compared with MCF7 cells (MCF7 sphere cells; [7]): inhibit MCF7 sphere cells more strongly than the parental MCF7 cells; also recorded: very marked growth inhibition on MCF7 sphere cells compared to MCF7 cells

Molecule: CC1=C2C[C@H]3[C@@H](CC=C4C[C@@H](O)CC[C@@]43C)[C@@H]2CC[C@]12O[C@@H]1C[C@H](C)CN[C@H]1[C@H]2C [cyclopamine]
- growth inhibition on MCF7 sphere cells compared with MCF7 cells (MCF7 sphere cells): did not inhibit MCF7 sphere cells more than the MCF7 parental cells; also recorded: no higher growth inhibitor ability on MCF7 sphere cells than MCF7 cells

Molecule: CC(=O)O[C@H]1C(=O)[C@@]2(C)[C@H]([C@H](OC(=O)c3ccccc3)[C@]3(O)C[C@H](OC(=O)[C@H](O)[C@@H](NC(=O)c4ccccc4)c4ccccc4)C(C)=C1C3(C)C)[C@]1(OC(C)=O)CO[C@@H]1C[C@@H]2O [paclitaxel]
- tumor growth inhibition (MDA-MB-435 tumor; positive control, paclitaxel 15 mg/kg): inhibited the tumor growth as expected
- inhibition at 0.25 µM (MCF7 cells; Homo sapiens, 72 h, 0.25 uM, 3 days, MCF7 parental cells, read-out: growth inhibition): 44.5%
- inhibition at 0.25 µM (MCF7 sphere cells; Homo sapiens, 72 h, 0.25 uM, 3 days, MCF7 sphere cells, read-out: growth inhibition): 6.1%

B1: DKK1: Wnt pathway inhibitor (protein, UniProt O94907 32-266, looked up)
Dickkopf-related protein 1: TLNSVLNSNAIKNLPPPLGGAAGHPGSAVSAAPGILYPGGNKYQTIDNYQPYPCAEDEECGTDEYCASPTRGGDAGVQICLACRKRRKRCMRHAMCCPGNYCKNGICVSSDQNHFRGEIEETITESFGNDHSTLDGYSRRTTLSSKMYHTKGQEGSVCLRSSDCASGLCCARHFWSKICKPVLKEGQVCTKHRRKGSHGLEIFQRCYCGEGLSCRIQKDHHQASNSSRLHTCQRH
- growth inhibition on MCF7 sphere cells compared with MCF7 cells (MCF7 sphere cells; [7]): no higher growth inhibitor ability on MCF7 sphere cells than MCF7 cells
- growth inhibition on MCF7 sphere cells compared with MCF7 cells (MCF7 sphere cells; comparison sphere versus parental cells, in words, listed as DKKI): did not inhibit MCF7 sphere cells more than the MCF7 parental cells
